Data reported in ChEMBL document CHEMBL3734664, “Noncovalent Mutant Selective Epidermal Growth Factor Receptor Inhibitors: A Lead Optimization Case Study” (J Med Chem, 2015).
pEC50, pIC50, pKi: −log10 of the molar value. Converted amounts (≈) assume the structure as drawn.

Assays:
physchem = settings: buffer, pH 7.4, logD
Description: (§1) Lipophilicity, log D of the compound at pH 7.4 by microscale shake flask method

[1] = molecular target: Epidermal growth factor receptor (Homo sapiens, UniProt P00533, L858R/T790M)
[2] = Plasma clearance in rat at 0.5 mg/kg, iv; assay type: ADME, organism-based
Rattus norvegicus [3] = assay: Unbound plasma clearance in rat at 0.5 mg/kg, iv; assay type: ADME, organism-based; settings: in vivo
[4] = molecular target: T1, Epidermal growth factor receptor (Homo sapiens, UniProt P00533)
T1 sequence (P00533 whole entry): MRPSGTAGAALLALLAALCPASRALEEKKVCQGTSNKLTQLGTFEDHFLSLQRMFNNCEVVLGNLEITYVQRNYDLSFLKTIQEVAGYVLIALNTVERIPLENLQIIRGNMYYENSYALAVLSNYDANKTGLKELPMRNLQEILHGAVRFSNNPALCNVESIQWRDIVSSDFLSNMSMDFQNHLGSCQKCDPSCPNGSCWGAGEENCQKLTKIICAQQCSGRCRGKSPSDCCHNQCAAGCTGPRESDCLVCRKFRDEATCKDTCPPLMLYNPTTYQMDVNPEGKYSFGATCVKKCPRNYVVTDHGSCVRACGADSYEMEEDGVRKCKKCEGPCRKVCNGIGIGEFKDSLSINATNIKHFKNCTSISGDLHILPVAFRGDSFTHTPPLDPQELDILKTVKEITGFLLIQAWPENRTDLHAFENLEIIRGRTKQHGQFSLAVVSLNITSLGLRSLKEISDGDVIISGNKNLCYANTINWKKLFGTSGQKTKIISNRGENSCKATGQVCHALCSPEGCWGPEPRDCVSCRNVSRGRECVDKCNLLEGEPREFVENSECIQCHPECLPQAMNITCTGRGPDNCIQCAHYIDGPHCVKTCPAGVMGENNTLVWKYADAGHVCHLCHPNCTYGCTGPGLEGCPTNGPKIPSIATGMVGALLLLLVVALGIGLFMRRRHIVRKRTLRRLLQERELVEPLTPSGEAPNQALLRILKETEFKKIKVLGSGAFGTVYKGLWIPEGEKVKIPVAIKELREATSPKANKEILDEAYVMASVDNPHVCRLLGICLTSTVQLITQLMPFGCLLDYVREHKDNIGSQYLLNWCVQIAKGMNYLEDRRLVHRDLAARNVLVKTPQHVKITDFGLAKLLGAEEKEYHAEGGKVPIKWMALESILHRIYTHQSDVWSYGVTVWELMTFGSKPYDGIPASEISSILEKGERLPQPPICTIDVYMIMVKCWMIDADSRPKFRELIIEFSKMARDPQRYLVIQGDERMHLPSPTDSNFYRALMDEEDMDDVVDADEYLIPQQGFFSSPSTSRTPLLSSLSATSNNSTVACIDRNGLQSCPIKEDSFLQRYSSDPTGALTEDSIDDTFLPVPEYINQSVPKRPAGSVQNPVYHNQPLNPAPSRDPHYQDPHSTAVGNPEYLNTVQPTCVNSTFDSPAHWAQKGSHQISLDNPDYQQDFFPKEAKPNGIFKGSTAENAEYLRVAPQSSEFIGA

NCI-H1975 = assay: Antiproliferative activity against human NCI-H1975 cells expressing EGFR T790M/L858R double mutant after 72 hrs by luminescence assay; assay type: functional, cell-based; settings: NCI-H1975, 72 h
[5] = Chemical stability under acidic conditions assessed as amide hydrolysis to acid form; assay type: physicochemical
Hepatocyte [6] = assay: Stability in human hepatocytes; assay type: ADME, cell-based
[7] = Oral bioavailability in rat at 10 mg/kg; assay type: ADME, organism-based; settings: in vivo
Homo sapiens = species on record: Homo sapiens; assay: Selectivity ratio of Ki for human wild type EGFR to Ki for human EGFR T790M/L858R double mutant
[8] = Apparent permeability from apical to basolateral side in MDCK cells; assay type: ADME, cell-based, Canis lupus familiaris; settings: dog
[9] = molecular target: T1, Epidermal growth factor receptor; remark: listed apart in the source
Description: Inhibition of EGFR phosphorylation in human NCI-H292 cells preincubated for 1 hr followed by stimulation with EGF for 8 mins by electrochemiluminescent immunoassay

[10] = Kinetic solubility of compound in PBS at pH 7.4 at 100 uM after 24 hrs; assay type: physicochemical; settings: read-out: Kinetic_solubility
Rattus norvegicus [11] = assay: Unbound plasma clearance in rat at 5 mg/kg, iv; assay type: ADME, organism-based; settings: in vivo
[12] = Plasma clearance in rat at 5 mg/kg, iv; assay type: ADME, organism-based
Liver microsome [13] = assay: Stability in human liver microsomes; assay type: ADME
[14] = Plasma clearance in rat at 1 mg/kg, iv; assay type: ADME, organism-based
Rattus norvegicus [15] = assay: Unbound plasma clearance in rat at 1 mg/kg, iv; assay type: ADME, organism-based; settings: in vivo
[16] = buffer, pH 7.4
Description: as §1

[17] = Oral bioavailability in rat; assay type: ADME, organism-based; settings: in vivo
Hepatocyte [18] = assay: Drug metabolism in rat hepatocytes assessed as cis-3-Fluoro-1-{4-[2-((R)-1-hydroxyethyl)-1-((S)-2,2,2-trifluoro-1-methylethyl)-1Himidazo[4,5-c]pyridin-6-ylamino]pyrimidin-2-yl}piperidin-4-ol; assay type: ADME, cell-based
[19] = molecular target: T2, Epidermal growth factor receptor (Homo sapiens, UniProt P00533, 746-750DEL/T790M); assay: Inhibition of EGFR T790M/del (746 to 750) deletion mutant phosphorylation in erlotinib-resistant human PC9 cells preincubated for 1 hr followed by stimulation with EGF for 8 mins by electrochemiluminescent immunoassay; assay type: cell-based, PC-9
T2 sequence (P00533 whole entry, looked up, stated change not applied): as the sequence (P00533 whole entry) above

Liver microsome [20] = assay: Drug metabolism in rat liver microsomes assessed as cis-3-Fluoro-1-{4-[2-((R)-1-hydroxyethyl)-1-((S)-2,2,2-trifluoro-1-methylethyl)-1Himidazo[4,5-c]pyridin-6-ylamino]pyrimidin-2-yl}piperidin-4-ol; assay type: ADME
NCI-H292 = assay: Antiproliferative activity against human NCI-H292 cells expressing wild type EGFR after 72 hrs by luminescence assay; assay type: functional, cell-based; settings: NCI-H292, 72 h
[21] = molecular target: T2, Epidermal growth factor receptor; assay: Inhibition of human EGFR T790M/del (746 to 750) deletion mutant using Fl-EEPLYWSFPAKKK-CONH2 as substrate preincubated for 30 mins followed by addition of substrate measured after 30 mins by Morrison plot analysis; assay type: protein assay; settings: read-out: Ki(app)
[22] = Half life in rat; assay type: ADME, organism-based; settings: in vivo
[23] = Antiproliferative activity against erlotinib-resistant human PC9 cells expressing EGFR with ex19del and T790M mutations after 72 hrs by luminescence assay; assay type: functional, cell-based; settings: PC-9, 72 h
[24] = Volume of distribution at steady state in rat; assay type: ADME, organism-based; settings: in vivo, read-out: Vdss

Sequence of Epidermal growth factor receptor (Homo sapiens, UniProt P00533, L858R/T790M) (P00533 25-1210 T790M/L858R limits assumed): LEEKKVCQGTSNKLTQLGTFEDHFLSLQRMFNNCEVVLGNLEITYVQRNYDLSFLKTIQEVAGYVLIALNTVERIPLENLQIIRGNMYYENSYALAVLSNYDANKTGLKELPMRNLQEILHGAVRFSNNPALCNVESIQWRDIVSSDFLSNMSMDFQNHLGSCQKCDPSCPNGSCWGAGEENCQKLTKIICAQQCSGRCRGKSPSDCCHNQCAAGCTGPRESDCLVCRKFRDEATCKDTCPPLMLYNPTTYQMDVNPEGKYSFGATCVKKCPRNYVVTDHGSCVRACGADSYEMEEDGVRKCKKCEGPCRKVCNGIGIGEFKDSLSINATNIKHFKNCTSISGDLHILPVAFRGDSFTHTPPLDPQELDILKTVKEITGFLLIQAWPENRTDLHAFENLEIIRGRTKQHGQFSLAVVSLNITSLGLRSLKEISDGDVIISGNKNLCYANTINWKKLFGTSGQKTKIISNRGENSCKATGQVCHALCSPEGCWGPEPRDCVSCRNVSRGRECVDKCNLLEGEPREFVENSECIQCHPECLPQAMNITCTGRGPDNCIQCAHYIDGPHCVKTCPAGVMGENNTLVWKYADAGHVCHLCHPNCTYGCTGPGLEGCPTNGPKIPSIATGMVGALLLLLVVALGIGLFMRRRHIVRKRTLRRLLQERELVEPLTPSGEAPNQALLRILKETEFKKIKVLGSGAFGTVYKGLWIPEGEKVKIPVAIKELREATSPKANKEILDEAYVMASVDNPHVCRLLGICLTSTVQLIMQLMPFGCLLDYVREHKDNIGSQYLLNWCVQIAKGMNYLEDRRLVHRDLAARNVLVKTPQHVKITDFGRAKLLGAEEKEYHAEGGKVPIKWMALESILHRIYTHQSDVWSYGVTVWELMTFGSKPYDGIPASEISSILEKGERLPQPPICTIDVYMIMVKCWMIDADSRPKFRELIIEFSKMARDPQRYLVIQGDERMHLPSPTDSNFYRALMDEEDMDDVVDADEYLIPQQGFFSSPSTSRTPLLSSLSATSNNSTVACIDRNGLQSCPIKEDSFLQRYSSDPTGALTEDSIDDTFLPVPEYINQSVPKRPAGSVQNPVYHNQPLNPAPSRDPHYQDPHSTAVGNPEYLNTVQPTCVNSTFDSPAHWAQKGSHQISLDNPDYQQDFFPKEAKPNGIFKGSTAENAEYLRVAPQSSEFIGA

logD (physchem) | pKi [1] | pKi [4] | SMILES | further results
2.8 | 7.85 | – | CCC(C)n1cnc2cnc(Nc3ccnc(N4CCC(OC)CC4)n3)cc21 (racemic; form 1) | –
2 | – | < 5.60 | Cc1nc2cnc(Nc3ccnc(/C=C/C(C)(C)O)n3)cc2n1C(C)C | clearance [2]: 50 mL/min/kg; CL free (Rattus norvegicus [3]): 200 mL/min/kg
1.9 | – | 5.92 | COC1CCN(c2nccc(Nc3cc4[nH]cnc4cn3)n2)CC1 | pEC50 (NCI-H1975): 5.15
1.9 | 6.18 | < 5.60 | Cc1nc2cnc(Nc3ccnc(SCC(C)(C)C(N)=O)n3)cc2n1C(C)C | –
1.5 | 7.66 | 6.41 | Cc1nc2cnc(Nc3ccnc(NCC(C)(C)C(N)=O)n3)cc2n1C(C)C | clearance [2]: 250 mL/min/kg; CL free (Rattus norvegicus [3]): 909 mL/min/kg; Stability [5]: Unstable
2.4 | 7.72 | 6.06 | COC1CCN(c2nccc(Nc3cc4c(cn3)nc(C)n4C(C)C)n2)CC1 | Stability (Hepatocyte [6]): Stable; pEC50 (NCI-H1975): 5.17; bioavailability [7]: 30%; Ratio Ki (Homo sapiens): 46; Papp A→B [8]: 29 ×10⁻⁶ cm/s; pIC50 [9]: < 5.00; solubility kinetic at 24 h, 100 µM [10]: 87 µM (≈ 33.2 µg/mL); CL free (Rattus norvegicus [11]): 620 mL/min/kg; clearance [12]: 40 mL/min/kg
0.1 | – | – | COC1(CCN)CCN(c2nccc(Nc3cc4c(cn3)nc(C)n4C(C)C)n2)CC1 | Stability (Liver microsome [13]): Stable
2.4 | 7.11 | – | COCC1(OC)CCN(c2nccc(Nc3cc4c(cn3)nc(C)n4C(C)C)n2)CC1 | –
1.7 | 7.62 | – | COC1(CO)CCN(c2nccc(Nc3cc4c(cn3)nc(C)n4C(C)C)n2)CC1 | Stability (Liver microsome [13]): Stable
– | 7.24 | 6.27 | CO[C@H]1CCN(c2nccc(Nc3cc4c(cn3)nc(CO)n4C(C)C)n2)C[C@@H]1F (racemic) | –
2.3 | 7.06 | – | COC1CCN(c2nccc(Nc3cc4c(cn3)ncn4C3CC3)n2)CC1 | –
1.6 | 7.28 | 5.68 | Cc1nc2cnc(Nc3ccnc(OCC(C)(C)S(C)(=O)=O)n3)cc2n1C(C)C | Stability (Hepatocyte [6]): Stable; Stability (Liver microsome [13]): Stable; clearance [2]: 53 mL/min/kg; CL free (Rattus norvegicus [3]): 156 mL/min/kg
1.8 | 6.83 | – | COC1CCN(c2nccc(Nc3cc4c(cn3)ncn4C3CCOC3)n2)CC1 (racemic) | –
2.9 | – | – | COC1CCN(c2nccc(Nc3cc4c(cn3)ncn4C3CCCC3)n2)CC1 | –
2.5 | 7.36 | 5.74 | CO[C@H]1CCN(c2nccc(Nc3cc4c(cn3)nc(C)n4C(C)C)n2)C[C@@H]1F (racemic) | –
2.4 | 6.70 | – | CCn1cnc2cnc(Nc3ccnc(N4CCC(OC)CC4)n3)cc21 | –
1.7 | 6.82 | – | CC(C)n1cnc2cnc(Nc3ccnc(N4CCC(C(N)=O)CC4)n3)cc21 | –
1.5 | 6.31 | – | COC1(CN(C)C)CCN(c2nccc(Nc3cc4c(cn3)nc(C)n4C(C)C)n2)CC1 | –
2.1 | 7.12 | – | COC1CCN(c2nccc(Nc3cc4c(cn3)ncn4C3CCOCC3)n2)CC1 | –
1.5 | 7.89 | 6.04 | Cc1nc2cnc(Nc3ccnc(N4CC[C@H](O)[C@H](F)C4)n3)cc2n1C(C)C (racemic) | pEC50 (NCI-H1975): 5.80; CL free (Rattus norvegicus [11]): 545 mL/min/kg; clearance [12]: 90 mL/min/kg

logD (physchem) | pKi [1] | pKi [4] | SMILES | further results
2.2 | 6.71 | < 5.82 | Cc1nc2cnc(Nc3ccnc(/C=C/C(C)(C)C(N)=O)n3)cc2n1C(C)C | Stability (Hepatocyte [6]): Stable; Stability (Liver microsome [13]): Stable
1.6 | 6.91 | 6.17 | Cc1nc2cnc(Nc3ccnc(N4CCC(C)(C(N)=O)C4)n3)cc2n1C(C)C (stereo unspecified) | Stability (Hepatocyte [6]): Stable; Stability (Liver microsome [13]): Stable
1.4 | – | 5.74 | Cc1nc2cnc(Nc3ccnc(NCC(C)(C)S(C)(=O)=O)n3)cc2n1C(C)C | Stability (Hepatocyte [6]): Stable; Stability (Liver microsome [13]): Stable; clearance [14]: 158 mL/min/kg; CL free (Rattus norvegicus [15]): 707 mL/min/kg
– | 7.77 | – | CCC(C)n1cnc2cnc(Nc3ccnc(N4CCC(OC)CC4)n3)cc21 (racemic; form 2) | logD [16]: 2.9
2.3 | 7.72 | 6.40 | COC1CCN(c2nccc(Nc3cc4c(cn3)nc(CO)n4C(C)C)n2)CC1 | pEC50 (NCI-H1975): 5.19
– | 7.66 | – | CCC(C)n1cnc2cnc(Nc3ccnc(N4CCC(OC)CC4)n3)cc21 (racemic; form 3) | –
2.8 | 7.15 | – | COC1CCN(c2nccc(Nc3cc4c(cn3)ncn4CC(F)(F)F)n2)CC1 | –
1.6 | 7.19 | – | Cc1nc2cnc(Nc3ccnc(N4CCC(S(C)(=O)=O)CC4)n3)cc2n1C(C)C | Stability (Hepatocyte [6]): Stable; Stability (Liver microsome [13]): Stable; clearance [2]: 165 mL/min/kg; CL free (Rattus norvegicus [3]): 934 mL/min/kg
2.3 | 8.57 | 5.97 | CO[C@H]1CCN(c2nccc(Nc3cc4c(cn3)nc(C)n4C(C)C)n2)C[C@H]1F (racemic) | pEC50 (NCI-H1975): 6.25; pIC50 [9]: < 5.00
1.8 | 7.47 | – | Cc1nc2cnc(Nc3ccnc(N4CCC(O)CC4)n3)cc2n1C(C)C | Stability (Hepatocyte [6]): Unstable
2.6 | 8.02 | < 6.39 | Cc1nc2cnc(Nc3ccnc(N4CC[C@H](O)C(F)(F)C4)n3)cc2n1C(C)C (racemic) | pEC50 (NCI-H1975): 5.77; pIC50 [9]: < 5.00
– | 8.37 | 6.82 | CO[C@H]1CCN(c2nccc(Nc3cc4c(cn3)nc(CO)n4C(C)C)n2)C[C@H]1F (racemic) | pEC50 (NCI-H1975): 6.06; clearance [14]: 107 mL/min/kg; CL free (Rattus norvegicus [15]): 584 mL/min/kg; pIC50 [9]: < 5.00
2.8 | – | – | CO[C@H]1CCN(c2nccc(Nc3cc4c(cn3)nc(CO)n4C(C)C)n2)CC1(F)F (racemic) | pEC50 (NCI-H1975): 5.62
1.6 | 7.80 | < 9.28 | CC(C)n1c(CO)nc2cnc(Nc3ccnc(N4CC[C@H](O)[C@H](F)C4)n3)cc21 (racemic) | pEC50 (NCI-H1975): < 5.00; clearance [2]: 151 mL/min/kg; CL free (Rattus norvegicus [3]): 382 mL/min/kg; pIC50 [9]: < 5.00
2.7 | 7.57 | – | COC1CCN(c2nccc(Nc3cc4c(cn3)ncn4C(C)C(F)(F)F)n2)CC1 (racemic) | –
3.4 | 7.74 | – | COC1CCN(c2nccc(Nc3cc4c(cn3)ncn4C3CCCCC3)n2)CC1 | –
2.2 | 8.96 | 6.91 | CO[C@H]1CCN(c2nccc(Nc3cc4c(cn3)nc([C@@H](C)O)n4[C@H](C)C(F)(F)F)n2)C[C@H]1F | pEC50 (NCI-H1975): 6.95; bioavailability [17]: 85%; Drug metabolism (Hepatocyte [18]): metabolite_detected; pIC50 [19]: 7.57; Drug metabolism (Liver microsome [20]): metabolite_detected; pEC50 (NCI-H292): 5.11; pKi [21]: 8.15; half-life [22]: 102 min; pIC50 [9]: < 5.00; pEC50 [23]: 7.05; Vd [24]: 3.7 L/kg; CL free (Rattus norvegicus [11]): 334 mL/min/kg; clearance [12]: 23 mL/min/kg
2.8 | 7.32 | – | COC1CCN(c2nccc(Nc3cc4c(cn3)ncn4C3CCC3)n2)CC1 | –
2 | 7.30 | – | COC1(CCO)CCN(c2nccc(Nc3cc4c(cn3)nc(C)n4C(C)C)n2)CC1 | –
